Measurements: ChEMBL document CHEMBL5034015, “Structure-Based Optimization of 3-Phenyl-N-(2-(3-phenylureido)ethyl)thiophene-2-sulfonamide Derivatives as Selective Mcl-1 Inhibitors” (J Med Chem, 2021)
Active and inactive are the calls of the source. Unless noted, the calls are words filed in the database; no cut-off is given here.

Assays:
[1] = Cytotoxicity against HEK293T cells assessed as cell viability at 20 uM incubated for 48 hrs by CCK8 assay relative to control; type: cell-based, HEK-293T; settings: human, read-out: Activity
[2] = biological target: T1, Apoptosis regulator Bcl-2 (Homo sapiens, UniProt P10415); assay: Binding affinity to full length human Bcl-2 expressed in Escherichia coli BL21 (DE3) assessed as inhibition constant preincubated for 30 mins followed by 5-FAM-QEDIIIINIARHLAQVGDSMD-RSIPPG tracer addition and measured after 20 mins by fluorescence polarization assay
T1 sequence (P10415 whole entry): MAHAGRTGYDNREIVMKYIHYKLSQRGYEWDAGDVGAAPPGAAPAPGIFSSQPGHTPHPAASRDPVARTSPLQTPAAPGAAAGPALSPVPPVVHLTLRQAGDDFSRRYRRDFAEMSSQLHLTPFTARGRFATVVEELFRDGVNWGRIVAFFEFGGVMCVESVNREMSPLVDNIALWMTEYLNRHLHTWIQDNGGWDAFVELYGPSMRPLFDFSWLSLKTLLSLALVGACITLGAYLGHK

[3] = biological target: T2, Induced myeloid leukemia cell differentiation protein Mcl-1 (Homo sapiens, UniProt Q07820); assay: Binding affinity to full length human MCL1 expressed in Escherichia coli BL21 (DE3) assessed as inhibition constant preincubated for 30 mins followed by 5-FAM-QEDIIIINIARHLAQVGDSMD-RSIPPG tracer addition and measured after 20 mins by fluorescence polarization assay
T2 sequence (Q07820 whole entry): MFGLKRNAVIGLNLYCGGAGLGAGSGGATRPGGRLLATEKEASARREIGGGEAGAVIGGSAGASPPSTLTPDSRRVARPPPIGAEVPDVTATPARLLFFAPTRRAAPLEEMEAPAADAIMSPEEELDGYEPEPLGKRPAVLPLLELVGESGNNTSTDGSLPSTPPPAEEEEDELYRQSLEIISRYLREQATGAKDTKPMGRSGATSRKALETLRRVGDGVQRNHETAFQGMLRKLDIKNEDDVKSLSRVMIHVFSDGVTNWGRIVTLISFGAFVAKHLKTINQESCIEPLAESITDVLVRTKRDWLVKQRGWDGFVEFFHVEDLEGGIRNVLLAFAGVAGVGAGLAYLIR

[4] = biological target: T3, Bcl-2-like protein 1 (Homo sapiens, UniProt Q07817); assay: Binding affinity to full length human Bcl-xl expressed in Escherichia coli BL21 (DE3) at up to 100 uM preincubated for 30 mins followed by 5-FAM-QEDIIIINIARHLAQVGDSMD-RSIPPG tracer addition and measured after 20 mins by fluorescence polarization assay; settings: dose microM <=100, time 50.0 min
T3 sequence (Q07817 whole entry): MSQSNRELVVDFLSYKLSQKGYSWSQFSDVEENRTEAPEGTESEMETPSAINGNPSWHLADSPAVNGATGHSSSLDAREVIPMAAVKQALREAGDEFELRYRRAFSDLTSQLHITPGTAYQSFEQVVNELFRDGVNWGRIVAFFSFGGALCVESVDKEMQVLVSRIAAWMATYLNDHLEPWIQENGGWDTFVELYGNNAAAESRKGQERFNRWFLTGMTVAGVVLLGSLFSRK

[5] = system: HeLa; assay: cells; settings: Homo sapiens, 48 h
Description: Cytotoxicity against human HeLa cells assessed as inhibition of cell growth incubated for 48 hrs by CCK8 assay

[6] = system: HL-60; assay: cells; settings: Homo sapiens, HL-60, 48 h
Description: Cytotoxicity against human HL-60 cells assessed as inhibition of cell growth incubated for 48 hrs by CCK8 assay

[7] = system: RS4-11; assay: cells; settings: Homo sapiens, RS4-11, 48 h
Description: Cytotoxicity against human RS4-11 cells assessed as inhibition of cell growth incubated for 48 hrs by CCK8 assay

[8] = system: HEK-293T; assay: Cytotoxicity against HEK293T cells assessed as reduction in cell viability incubated for 48 hrs by CCK8 assay; settings: Homo sapiens
[9] = biological target: T3, Bcl-2-like protein 1; assay: Binding affinity to full length human Bcl-xl expressed in Escherichia coli BL21 (DE3) assessed as inhibition constant preincubated for 30 mins followed by 5-FAM-QEDIIIINIARHLAQVGDSMD-RSIPPG tracer addition and measured after 20 mins by fluorescence polarization assay
[10] = biological target: T3, Bcl-2-like protein 1; assay: Binding affinity to full length human Bcl-xl expressed in Escherichia coli BL21 (DE3) at 100 uM preincubated for 30 mins followed by 5-FAM-QEDIIIINIARHLAQVGDSMD-RSIPPG tracer addition and measured after 20 mins by fluorescence polarization assay relative to control; settings: time 50.0 min
[11] = biological target: T1, Apoptosis regulator Bcl-2; assay: Binding affinity to full length human Bcl-2 expressed in Escherichia coli BL21 (DE3) at 100 uM preincubated for 30 mins followed by 5-FAM-QEDIIIINIARHLAQVGDSMD-RSIPPG tracer addition and measured after 20 mins by fluorescence polarization assay relative to control; settings: time 50.0 min
[12] = biological target: T2, Induced myeloid leukemia cell differentiation protein Mcl-1; assay: Binding affinity to full length human MCL1 expressed in Escherichia coli BL21 (DE3) at 100 uM preincubated for 30 mins followed by 5-FAM-QEDIIIINIARHLAQVGDSMD-RSIPPG tracer addition and measured after 20 mins by fluorescence polarization assay relative to control; settings: time 50.0 min
[13] = biological target: T1, Apoptosis regulator Bcl-2; assay: Binding affinity to full length human Bcl-2 expressed in Escherichia coli BL21 (DE3) at up to 100 uM preincubated for 30 mins followed by 5-FAM-QEDIIIINIARHLAQVGDSMD-RSIPPG tracer addition and measured after 20 mins by fluorescence polarization assay; settings: dose microM <=100, time 50.0 min
[14] = biological target: T2, Induced myeloid leukemia cell differentiation protein Mcl-1; assay: Binding affinity to full length human MCL1 expressed in Escherichia coli BL21 (DE3) at up to 100 uM preincubated for 30 mins followed by 5-FAM-QEDIIIINIARHLAQVGDSMD-RSIPPG tracer addition and measured after 20 mins by fluorescence polarization assay; settings: dose microM <=100, time 50.0 min
[15] = biological target: T2, Induced myeloid leukemia cell differentiation protein Mcl-1; assay: Binding affinity to 15N-labeled human MCL1 (172 to 327 residues) expressed in Escherichia coli BL21 (DE3) assessed as chemical shift at H224 residue at 0.3 mM incubated for 1 hr by 15N HSQC NMR spectroscopy analysis
[16] = biological target: T2, Induced myeloid leukemia cell differentiation protein Mcl-1; assay: Binding affinity to 15N-labeled human MCL1 (172 to 327 residues) expressed in Escherichia coli BL21 (DE3) assessed as chemical shift at F228 residue at 0.3 mM incubated for 1 hr by 15N HSQC NMR spectroscopy analysis
[17] = biological target: T2, Induced myeloid leukemia cell differentiation protein Mcl-1; assay: Binding affinity to 15N-labeled human MCL1 (172 to 327 residues) expressed in Escherichia coli BL21 (DE3) assessed as chemical shift at M231 residue at 0.3 mM incubated for 1 hr by 15N HSQC NMR spectroscopy analysis
[18] = biological target: T2, Induced myeloid leukemia cell differentiation protein Mcl-1; assay: Binding affinity to 15N-labeled human MCL1 (172 to 327 residues) expressed in Escherichia coli BL21 (DE3) assessed as chemical shift at L235 residue at 0.3 mM incubated for 1 hr by 15N HSQC NMR spectroscopy analysis
[19] = biological target: T2, Induced myeloid leukemia cell differentiation protein Mcl-1; assay: Binding affinity to 15N-labeled human MCL1 (172 to 327 residues) expressed in Escherichia coli BL21 (DE3) assessed as chemical shift at M250 residue at 0.3 mM incubated for 1 hr by 15N HSQC NMR spectroscopy analysis
[20] = biological target: T2, Induced myeloid leukemia cell differentiation protein Mcl-1; assay: Binding affinity to 15N-labeled human MCL1 (172 to 327 residues) expressed in Escherichia coli BL21 (DE3) assessed as chemical shift at R263 residue at 0.3 mM incubated for 1 hr by 15N HSQC NMR spectroscopy analysis

| Compound | viability at 48 h, 20 µM [1] [%] | Ki [2] [µM] | Ki [3] [nM] | Activity [4] | IC50 [5] [µM] | IC50 [6] [µM] | IC50 [7] [µM] | IC50 [8] [µM] | Ki [9] [nM] | inhibition [10] [%] | inhibition [11] [%] | inhibition [12] [%] | Activity [13] | Activity [14] | Activity [15] | Activity [16] | Activity [17] | Activity [18] | Activity [19] | Activity [20] |
| --- | --- | --- | --- | --- | --- | --- | --- | --- | --- | --- | --- | --- | --- | --- | --- | --- | --- | --- | --- | --- |
| Cc1ccc(-c2ccsc2S(=O)(=O)NCCNC(=O)Nc2ccc([N+](=O)[O-])cc2)c(Oc2ccc(O)c(O)c2)c1 | 48 | 13 | 7100 | inactive | > 20 | 3.9 | 7.7 | – | – | – | – | – | – | – | – | – | – | – | – | – |
| O=S(=O)(NCCNC(=S)Nc1cc(C(F)(F)F)cc(C(F)(F)F)c1)c1sccc1-c1ccccc1Oc1ccc(O)c(O)c1 | – | 5.6 | 840 | inactive | > 50 | 4.3 | 4.8 | 7.5 | – | – | – | – | – | – | – | – | – | – | – | – |
| O=C(NCCNS(=O)(=O)c1cc(-c2ccccc2Oc2ccc(O)c(O)c2)cs1)Nc1cc(C(F)(F)F)cc(C(F)(F)F)c1 | – | 5.2 | 510 | – | > 20 | 1.3 | 3.9 | > 50 | 1700 | – | – | – | – | – | – | – | – | – | – | – |
| O=S(=O)(NCCNC(=S)Nc1cc(C(F)(F)F)cc(C(F)(F)F)c1)c1ccc(-c2ccccc2Oc2ccc(O)c(O)c2)s1 | – | 2.6 | 370 | – | > 20 | 18.3 | 10.3 | 12.3 | 930 | – | – | – | – | – | – | – | – | – | – | – |
| O=S(=O)(NCCNC(=S)Nc1cc(C(F)(F)F)cc(C(F)(F)F)c1)c1cc(-c2ccccc2Oc2ccc(O)c(O)c2)cs1 | – | 4.6 | 320 | – | > 20 | 0.6 | 4.5 | > 20 | 1000 | – | – | – | – | – | – | – | – | – | – | – |
| O=C(Nc1cccc([N+](=O)[O-])c1)N1CCN(S(=O)(=O)c2sccc2-c2ccccc2Oc2ccc(O)c(O)c2)CC1 | – | – | – | – | > 20 | 4.5 | 9.8 | > 20 | – | 34 | 30 | 74 | – | – | – | – | – | – | – | – |
| O=C(NCCNS(=O)(=O)c1ccc(-c2ccccc2Oc2ccc(O)c(O)c2)s1)Nc1cc(C(F)(F)F)cc(C(F)(F)F)c1 | – | 3.9 | 420 | – | > 20 | 10.5 | 4.9 | 17.1 | 1500 | – | – | – | – | – | – | – | – | – | – | – |
| COc1ccc(Oc2ccccc2-c2ccsc2S(=O)(=O)N2CCN(C(=O)Nc3ccc(F)cc3)CC2)cc1OC | – | – | – | – | > 20 | > 20 | 14.9 | > 50 | – | 33 | 15 | 28 | – | – | – | – | – | – | – | – |
| COc1ccc(Oc2ccc([N+](=O)[O-])cc2-c2ccsc2S(=O)(=O)N2CCN(C(=S)Nc3ccc([N+](=O)[O-])cc3)CC2)cc1OC | – | – | – | – | > 50 | > 50 | > 50 | > 50 | – | 27 | 16 | 26 | – | – | – | – | – | – | – | – |
| O=C(NCCNS(=O)(=O)c1sccc1-c1ccccc1Oc1ccc(O)c(O)c1)Nc1cc(Cl)cc(Cl)c1 | – | 4.6 | 1400 | inactive | > 50 | 6.9 | 6.2 | 10.7 | – | – | – | – | – | – | – | – | – | – | – | – |
| O=C(NCCNS(=O)(=O)c1ccc(-c2ccccc2OCc2ccccc2)s1)Nc1cc(Cl)cc(Cl)c1 | 41 | – | – | inactive | > 20 | 11.7 | > 20 | – | – | – | – | – | inactive | inactive | – | – | – | – | – | – |
| O=S(=O)(c1sccc1-c1ccccc1Oc1ccc(O)c(O)c1)N1CCN(C(=S)Nc2ccc(Cl)cc2)CC1 | – | – | – | – | > 50 | 5.5 | 7.5 | > 50 | – | 3 | 2 | 20 | – | – | – | – | – | – | – | – |
| Cc1nn(C)c(COc2ccc(N3CCN(S(=O)(=O)N(C)C)CC3)cc2)c1-c1cccc2c(CCCOc3cccc4ccccc34)c(C(=O)O)n(CCN3CCOCC3)c12 | – | – | < 1 | inactive | > 20 | 2.46 | 7.31 | > 20 | – | – | – | – | inactive | – | Active | Active | Active | Active | Active | Active |
| Cc1ccc(-c2ccsc2S(=O)(=O)NCCNC(=O)Nc2cc(Cl)cc(Cl)c2)c(Oc2ccc(O)c(O)c2)c1 | – | 2.9 | 590 | inactive | 6.5 | 3.5 | 5.1 | 6.7 | – | – | – | – | – | – | – | – | – | – | – | – |
| O=C(NCCNS(=O)(=O)c1ccc(-c2ccccc2Oc2ccc(O)c(O)c2)s1)Nc1cc(Cl)cc(Cl)c1 | – | 3.6 | 940 | – | > 20 | 10.4 | 4.5 | 12.4 | 1700 | – | – | – | – | – | – | – | – | – | – | – |
| O=[N+]([O-])c1ccc(Oc2ccc(O)c(O)c2)c(-c2ccsc2S(=O)(=O)N2CCN(C(=S)Nc3cc(C(F)(F)F)cc(C(F)(F)F)c3)CC2)c1 | – | – | – | – | > 20 | 8.4 | 9.5 | > 20 | – | 14 | 12 | 52 | – | – | Active | Active | Active | Active | Active | Active |
| O=C(NCCNS(=O)(=O)c1cc(-c2ccccc2Oc2ccc(O)c(O)c2)cs1)Nc1cc(Cl)cc(Cl)c1 | – | 8.4 | 770 | – | > 50 | > 20 | > 50 | > 20 | 1700 | – | – | – | – | – | – | – | – | – | – | – |
| COc1ccc(Oc2ccc([N+](=O)[O-])cc2-c2ccsc2S(=O)(=O)N2CCN(C(=O)Nc3ccc([N+](=O)[O-])cc3)CC2)cc1OC | – | – | – | – | > 50 | > 50 | > 50 | > 20 | – | 44 | 19 | 37 | – | – | – | – | – | – | – | – |
| COc1ccc(Oc2ccccc2-c2ccsc2S(=O)(=O)N2CCN(C(=O)Nc3ccc([N+](=O)[O-])cc3)CC2)cc1OC | – | – | – | – | > 50 | > 50 | > 50 | > 20 | – | 20 | 17 | 22 | – | – | – | – | – | – | – | – |
| COc1ccc(Oc2ccccc2-c2ccsc2S(=O)(=O)N2CCN(C(=O)Nc3cccc([N+](=O)[O-])c3)CC2)cc1OC | – | – | – | – | > 50 | > 50 | > 50 | > 20 | – | 19 | 18 | 31 | – | – | – | – | – | – | – | – |
| O=C(NCCNS(=O)(=O)c1ccc(-c2ccccc2O[C@H]2CC[C@H](O)CC2)s1)Nc1cc(C(F)(F)F)cc(C(F)(F)F)c1 | 50 | – | – | inactive | > 20 | 7.1 | 10.1 | – | – | – | – | – | inactive | inactive | – | – | – | – | – | – |
| O=C(NCCNS(=O)(=O)c1sccc1-c1ccccc1Oc1ccc(O)c(O)c1)Nc1cc(C(F)(F)F)cc(C(F)(F)F)c1 | – | 17 | 2100 | inactive | > 50 | 5.7 | 4.9 | 8.9 | – | – | – | – | – | – | – | – | – | – | – | – |
